From patent US20250145665A1, “MACROCYCLIC PEPTIDES USEFUL AS MODULATORS OF TNF ALPHA” (Bristol-Myers Squibb Company, priority 2023, published 2025) come the findings set out here.

Starred links: 1 amine or outer side, 2 acyl side, 3 side chain; linkers in the order of their positions; H or OH if unused. Positions of bridges follow the written chain, without caps; N, C: chain ends. Non-standard residues stand in square brackets, D forms with d. Residues, ends and D or L forms follow the SMILES beside them. ξ: configuration not given here. Bip(4'-COOH) = N[C@@H](Cc1ccc(-c2ccc(C(=O)O)cc2)cc1)C(=O)O; Bip(4'-NHAc) = CC(=O)Nc1ccc(-c2ccc(C[C@H](N)C(=O)O)cc2)cc1; Phe(3-CH2NH2) = O=C([C@H](Cc1cccc(CN[*:3])c1)N[*:1])[*:2]; Ala(morpholin-4-yl) = N[C@@H](CN1CCOCC1)C(=O)O; Phe(3-CONH2) = NC(=O)c1cccc(C[C@H](N)C(=O)O)c1; Bip = N[C@@H](Cc1ccc(-c2ccccc2)cc1)C(=O)O; Phe(2-Me) = Cc1ccccc1C[C@H](N)C(=O)O; 2Pal = N[C@@H](Cc1ccccn1)C(=O)O; 2Thi = N[C@@H](Cc1cccs1)C(=O)O; Cha = N[C@@H](CC1CCCCC1)C(=O)O; Tle = CC(C)(C)[C@H](N)C(=O)O; ξIle = CC[C@H](C)C(N)C(=O)O; Aze = O=C(O)[C@@H]1CCN1; Sar = CNCC(=O)O

For the assay, the target named is TNFα (Homo sapiens, UniProt P01375). Description: TNF-Induced HEK-Blue Assay. Conditions: HEK-Blue-CD40L cells, NF-kB-driven secreted alkaline phosphatase reporter; TNFα 0.5 ng/ml; 18 h; read-out: TNF induced HEK-Blue assay IC50 value. Type of assay: cell-based.
Sequence of TNFα (P01375 77-233 limits assumed): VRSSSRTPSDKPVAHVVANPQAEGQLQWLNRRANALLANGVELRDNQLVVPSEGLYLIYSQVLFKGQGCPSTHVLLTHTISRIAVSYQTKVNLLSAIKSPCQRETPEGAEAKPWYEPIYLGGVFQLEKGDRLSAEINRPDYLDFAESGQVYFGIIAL
The IC50 is the midpoint of a concentration-inhibition curve. With `CC(=O)Nc1ccc(-c2ccc(C[C@@H]3NC(=O)[C@H](Cc4ccc(-c5ccc(C(=O)O)cc5)cc4)NC(=O)[C@H](CC4CCCCC4)NC(=O)CSC[C@@H](C(=O)NCC(N)=O)NC(=O)[C@H](CC(C)C)NC(=O)[C@H](Cc4cccc(C(N)=O)c4)NC(=O)[C@H](C(C)C)NC(=O)[C@@H]4CCCN4C(=O)[C@H](C(C)C)NC(=O)[C@@H](CCCNC(=N)N)NC(=O)[C@H](CC(=O)O)NC(=O)[C@H](Cc4ccc(O)cc4)NC(=O)CN(C)C3=O)cc2)cc1` [Example 252] ({CH2CO}-[Cha][Bip(4'-COOH)][Bip(4'-NHAc)][Sar]YD[dR]VPV[Phe(3-CONH2)]LCG-NH2; thioether N-13), the concentration for half-maximal inhibition (IC50) is less than 50 nM.

With `CC(=O)Nc1ccc(-c2ccc(C[C@@H]3NC(=O)[C@H](Cc4ccc(-c5ccccc5)cc4)NC(=O)[C@H](CC4CCCCC4)NC(=O)CSC[C@@H](C(=O)NCC(N)=O)NC(=O)[C@H](CC(C)C)NC(=O)[C@H](Cc4cnc[nH]4)NC(=O)[C@H](C(C)C)NC(=O)[C@@H]4CCCN4C(=O)[C@H](CC(N)=O)NC(=O)[C@@H](CCCNC(=N)N)NC(=O)[C@H](CC(=O)O)NC(=O)[C@@H]4CCCN4C(=O)CN(C)C3=O)cc2)cc1` [Example 253] ({CH2CO}-[Cha][Bip][Bip(4'-NHAc)][Sar]PD[dR]NPVHLCG-NH2; thioether N-13), the IC50 was 50 to 200 nM. Turning to `CC(=O)Nc1ccc(-c2ccc(C[C@@H]3NC(=O)[C@H](Cc4ccc(-c5ccc(C(=O)O)cc5)cc4)NC(=O)[C@H](CC4CCCCC4)NC(=O)CSC[C@@H](C(=O)NCC(N)=O)NC(=O)[C@H](CC(C)C)NC(=O)[C@H](Cc4cccc(CN)c4)NC(=O)[C@H](C(C)C)NC(=O)[C@@H]4CCCN4C(=O)[C@H](C(C)C)NC(=O)[C@@H](CCCNC(=N)N)NC(=O)[C@H](CC(=O)O)NC(=O)[C@@H]4CCCN4C(=O)CN(C)C3=O)cc2)cc1` [Example 254] ({CH2CO}-[Cha][Bip(4'-COOH)][Bip(4'-NHAc)][Sar]PD[dR]VPV[Phe(3-CH2NH2)]LCG-NH2; thioether N-13), the half-inhibitory concentration (IC50) lay in the range of 200 to 2000 nM. Next, `CC(=O)Nc1ccc(-c2ccc(C[C@@H]3NC(=O)[C@H](Cc4ccc(-c5ccc(C(=O)O)cc5)cc4)NC(=O)[C@H](CC4CCCCC4)NC(=O)CSC[C@@H](C(=O)NCC(N)=O)NC(=O)[C@H](CC(C)C)NC(=O)[C@H](Cc4ccccc4C)NC(=O)[C@H](C(C)C)NC(=O)[C@@H]4CCCN4C(=O)[C@H](C(C)C)NC(=O)[C@@H](CCCNC(=N)N)NC(=O)[C@H](CC(=O)O)NC(=O)[C@@H]4CCCN4C(=O)CN(C)C3=O)cc2)cc1` [Example 255] ({CH2CO}-[Cha][Bip(4'-COOH)][Bip(4'-NHAc)][Sar]PD[dR]VPV[Phe(2-Me)]LCG-NH2; thioether N-13): 50 to 200 nM; `CC[C@H](C)[C@@H]1NC(=O)[C@@H](CCCNC(=N)N)NC(=O)[C@H](CC(=O)O)NC(=O)[C@@H]2CCCN2C(=O)CN(C)C(=O)[C@H](Cc2ccc(-c3ccc(NC(C)=O)cc3)cc2)NC(=O)[C@H](Cc2ccc(-c3ccc(C(=O)O)cc3)cc2)NC(=O)[C@H](CC2CCCCC2)NC(=O)CSC[C@@H](C(=O)NCC(N)=O)NC(=O)[C@H](CC(C)C)NC(=O)[C@H](Cc2ccc(O)cc2)NC(=O)[C@H](C(C)C)NC(=O)[C@@H]2CCCN2C1=O` [Example 256] ({CH2CO}-[Cha][Bip(4'-COOH)][Bip(4'-NHAc)][Sar]PD[dR]IPVYLCG-NH2; thioether N-13): 50 to 200 nM. In the case of `CC[C@H](C)[C@@H]1NC(=O)[C@@H](CCCNC(=N)N)NC(=O)[C@H](CC(=O)O)NC(=O)[C@H](Cc2cnc[nH]2)NC(=O)CN(C)C(=O)[C@H](Cc2ccc(-c3ccc(NC(C)=O)cc3)cc2)NC(=O)[C@H](Cc2ccc(-c3ccc(C(=O)O)cc3)cc2)NC(=O)[C@H](CC2CCCCC2)NC(=O)CSC[C@@H](C(=O)NCC(N)=O)NC(=O)[C@H](CC(C)C)NC(=O)[C@H](Cc2cnc[nH]2)NC(=O)[C@H](C(C)C)NC(=O)[C@@H]2CCCN2C1=O` [Example 257] ({CH2CO}-[Cha][Bip(4'-COOH)][Bip(4'-NHAc)][Sar]HD[dR]IPVHLCG-NH2; thioether N-13), the IC50 is less than 50 nM. For the molecule `CC[C@H](C)C1NC(=O)[C@@H](CCCNC(=N)N)NC(=O)[C@H](CC(=O)O)NC(=O)[C@H](Cc2ccc(O)cc2)NC(=O)CN(C)C(=O)[C@H](Cc2ccc(-c3ccc(NC(C)=O)cc3)cc2)NC(=O)[C@H](Cc2ccc(-c3ccccc3)cc2)NC(=O)[C@H](CN2CCOCC2)NC(=O)CSC[C@@H](C(=O)NCC(N)=O)NC(=O)[C@H](CC(C)C)NC(=O)[C@H](Cc2cccs2)NC(=O)[C@H](C(C)C)NC(=O)[C@@H]2CCCN2C1=O` (stereo partly drawn) [Example 258] ({CH2CO}-[Ala(morpholin-4-yl)][Bip][Bip(4'-NHAc)][Sar]YD[dR][ξIle]PV[2Thi]LCG-NH2; thioether N-13), the IC50 lay in the range of 50 to 200 nM. With `CC(=O)Nc1ccc(-c2ccc(C[C@@H]3NC(=O)[C@H](Cc4ccc(-c5ccccc5)cc4)NC(=O)[C@H](C(C)(C)C)NC(=O)CSC[C@@H](C(=O)NCC(N)=O)NC(=O)[C@H](CC(C)C)NC(=O)[C@H](Cc4cccs4)NC(=O)[C@H](C(C)C)NC(=O)[C@@H]4CCCN4C(=O)[C@H](C(C)C)NC(=O)[C@@H](CCCNC(=N)N)NC(=O)[C@H](CC(=O)O)NC(=O)[C@H](Cc4ccc(O)cc4)NC(=O)CN(C)C3=O)cc2)cc1` [Example 259] ({CH2CO}-[Tle][Bip][Bip(4'-NHAc)][Sar]YD[dR]VPV[2Thi]LCG-NH2; thioether N-13), the IC50 is less than 50 nM. `CC[C@H](C)[C@@H]1NC(=O)[C@@H](CCCNC(=N)N)NC(=O)[C@H](CC(=O)O)NC(=O)[C@H](Cc2ccc(O)cc2)NC(=O)CN(C)C(=O)[C@H](Cc2ccc(-c3ccc(NC(C)=O)cc3)cc2)NC(=O)[C@H](Cc2ccc(-c3ccccc3)cc2)NC(=O)[C@H](C(C)(C)C)NC(=O)CSC[C@@H](C(=O)NCC(N)=O)NC(=O)[C@H](CC(C)C)NC(=O)[C@H](Cc2cccs2)NC(=O)[C@H](C(C)C)NC(=O)[C@@H]2CCCN2C1=O` [Example 260] ({CH2CO}-[Tle][Bip][Bip(4'-NHAc)][Sar]YD[dR]IPV[2Thi]LCG-NH2; thioether N-13): the concentration for half-maximal inhibition (IC50) was less than 50 nM. For the molecule `CC(=O)Nc1ccc(-c2ccc(C[C@@H]3NC(=O)[C@H](Cc4ccc(-c5ccc(C(=O)O)cc5)cc4)NC(=O)[C@H](C(C)(C)C)NC(=O)CSC[C@@H](C(=O)NCC(N)=O)NC(=O)[C@H](CC(C)C)NC(=O)[C@H](Cc4cnc[nH]4)NC(=O)[C@H](C(C)C)NC(=O)[C@@H]4CCCN4C(=O)[C@H](C(C)C)NC(=O)[C@@H](CCCNC(=N)N)NC(=O)[C@H](CC(=O)O)NC(=O)[C@H](Cc4ccccc4)NC(=O)CN(C)C3=O)cc2)cc1` [Example 261] ({CH2CO}-[Tle][Bip(4'-COOH)][Bip(4'-NHAc)][Sar]FD[dR]VPVHLCG-NH2; thioether N-13), the IC50 was less than 50 nM. For `CC[C@H](C)[C@@H]1NC(=O)[C@@H](CCCNC(=N)N)NC(=O)[C@H](CC(=O)O)NC(=O)[C@H](Cc2ccccn2)NC(=O)CN(C)C(=O)[C@H](Cc2ccc(-c3ccc(NC(C)=O)cc3)cc2)NC(=O)[C@H](Cc2ccc(-c3ccccc3)cc2)NC(=O)[C@H](C(C)(C)C)NC(=O)CSC[C@@H](C(=O)NCC(N)=O)NC(=O)[C@H](CC(C)C)NC(=O)[C@H](Cc2cccc(C(N)=O)c2)NC(=O)[C@H](C(C)C)NC(=O)[C@@H]2CCCN2C1=O` [Example 262] ({CH2CO}-[Tle][Bip][Bip(4'-NHAc)][Sar][2Pal]D[dR]IPV[Phe(3-CONH2)]LCG-NH2; thioether N-13) the value was 50 to 200 nM; for `CC(=O)Nc1ccc(-c2ccc(C[C@@H]3NC(=O)[C@H](Cc4ccc(-c5ccccc5)cc4)NC(=O)[C@H](C(C)(C)C)NC(=O)CSC[C@@H](C(=O)NCC(N)=O)NC(=O)[C@H](CC(C)C)NC(=O)[C@H](Cc4ccccc4)NC(=O)[C@H](C(C)C)NC(=O)[C@@H]4CCCN4C(=O)[C@H](C(C)C)NC(=O)[C@@H](CCCNC(=N)N)NC(=O)[C@H](CC(=O)O)NC(=O)[C@H](Cc4ccc(O)cc4)NC(=O)CN(C)C3=O)cc2)cc1` [Example 263] ({CH2CO}-[Tle][Bip][Bip(4'-NHAc)][Sar]YD[dR]VPVFLCG-NH2; thioether N-13), 50 to 200 nM. Turning to `CC[C@H](C)[C@@H]1NC(=O)[C@@H](CCCNC(=N)N)NC(=O)[C@H](CC(=O)O)NC(=O)[C@H](Cc2ccc(O)cc2)NC(=O)CN(C)C(=O)[C@H](Cc2ccc(-c3ccc(NC(C)=O)cc3)cc2)NC(=O)[C@H](Cc2ccc(-c3ccccc3)cc2)NC(=O)[C@H](C(C)(C)C)NC(=O)CSC[C@@H](C(=O)NCC(N)=O)NC(=O)[C@H](CC(C)C)NC(=O)[C@H](Cc2ccccc2)NC(=O)[C@H](C(C)C)NC(=O)[C@@H]2CCCN2C1=O` [Example 264] ({CH2CO}-[Tle][Bip][Bip(4'-NHAc)][Sar]YD[dR]IPVFLCG-NH2; thioether N-13), the half-maximal inhibitory concentration (IC50) lay in the range of 50 to 200 nM. Regarding `CC(=O)Nc1ccc(-c2ccc(C[C@@H]3NC(=O)[C@H](Cc4ccc(-c5ccc(C(=O)O)cc5)cc4)NC(=O)[C@H](C(C)(C)C)NC(=O)CSC[C@@H](C(=O)NCC(N)=O)NC(=O)[C@H](CC(C)C)NC(=O)[C@H](Cc4ccc(O)cc4)NC(=O)[C@H](C(C)C)NC(=O)[C@@H]4CCCN4C(=O)[C@H](C(C)C)NC(=O)[C@@H](CCCNC(=N)N)NC(=O)[C@H](CC(=O)O)NC(=O)[C@@H]4CCCN4C(=O)CN(C)C3=O)cc2)cc1` [Example 265] ({CH2CO}-[Tle][Bip(4'-COOH)][Bip(4'-NHAc)][Sar]PD[dR]VPVYLCG-NH2; thioether N-13), the IC50 fell in the range of 50 to 200 nM. As for `CC(=O)Nc1ccc(-c2ccc(C[C@@H]3NC(=O)[C@H](Cc4ccc(-c5ccc(C(=O)O)cc5)cc4)NC(=O)[C@H](C(C)(C)C)NC(=O)CSC[C@@H](C(=O)NCC(N)=O)NC(=O)[C@H](CC(C)C)NC(=O)[C@H](Cc4ccc(O)cc4)NC(=O)[C@H](C(C)C)NC(=O)[C@@H]4CCN4C(=O)[C@H](C(C)C)NC(=O)[C@@H](CCCNC(=N)N)NC(=O)[C@H](CC(=O)O)NC(=O)[C@@H]4CCCN4C(=O)CN(C)C3=O)cc2)cc1` [Example 266] ({CH2CO}-[Tle][Bip(4'-COOH)][Bip(4'-NHAc)][Sar]PD[dR]V[Aze]VYLCG-NH2; thioether N-13), the IC50 was in the range of 50 to 200 nM.
